# pKi: −log10 of the molar value.
# Biological target: Non-receptor tyrosine-protein kinase TYK2 (Homo sapiens, UniProt P29597)
# Assay: Tyk2 & JAK2 Caliper Assay: The caliper machine employs an off chip mobility shift assay to detect phosphorylated peptide substrates from kinase assays, using microfluidics technology. The assays are carried out at ATP concentration equivalent to the ATP Km, and at 1 mM ATP. Compounds are serially diluted in DMSO then further diluted in assay buffer (25 mM HEPES, pH 7.5, 0.01% Brij-35, 0.01% Triton, 0.5 mM EGTA). 5 ul of diluted compound was added into wells first, then 10 ul of enzyme mix was added into wells, followed by 10 uL of substrate mix (peptide and ATP in 10 mM MgCl2) to start reaction. Reaction was incubated at 28° C. for 25 min and then added 25 ul stop buffer (100 mM HEPES, 0.015% Brij-35, 50 mM EDTA), followed by reading with Caliper. JAK2 at 1 nM final concentration and TYK2 at 9.75 nM are from Carna, and substrates used are ATP at 20 and 16 uM, respectively. JAK2 assay uses peptide 22 and TYK2 uses peptide 30 (Caliper), each at 3 uM.
# Chain of Non-receptor tyrosine-protein kinase TYK2 (P29597 whole entry): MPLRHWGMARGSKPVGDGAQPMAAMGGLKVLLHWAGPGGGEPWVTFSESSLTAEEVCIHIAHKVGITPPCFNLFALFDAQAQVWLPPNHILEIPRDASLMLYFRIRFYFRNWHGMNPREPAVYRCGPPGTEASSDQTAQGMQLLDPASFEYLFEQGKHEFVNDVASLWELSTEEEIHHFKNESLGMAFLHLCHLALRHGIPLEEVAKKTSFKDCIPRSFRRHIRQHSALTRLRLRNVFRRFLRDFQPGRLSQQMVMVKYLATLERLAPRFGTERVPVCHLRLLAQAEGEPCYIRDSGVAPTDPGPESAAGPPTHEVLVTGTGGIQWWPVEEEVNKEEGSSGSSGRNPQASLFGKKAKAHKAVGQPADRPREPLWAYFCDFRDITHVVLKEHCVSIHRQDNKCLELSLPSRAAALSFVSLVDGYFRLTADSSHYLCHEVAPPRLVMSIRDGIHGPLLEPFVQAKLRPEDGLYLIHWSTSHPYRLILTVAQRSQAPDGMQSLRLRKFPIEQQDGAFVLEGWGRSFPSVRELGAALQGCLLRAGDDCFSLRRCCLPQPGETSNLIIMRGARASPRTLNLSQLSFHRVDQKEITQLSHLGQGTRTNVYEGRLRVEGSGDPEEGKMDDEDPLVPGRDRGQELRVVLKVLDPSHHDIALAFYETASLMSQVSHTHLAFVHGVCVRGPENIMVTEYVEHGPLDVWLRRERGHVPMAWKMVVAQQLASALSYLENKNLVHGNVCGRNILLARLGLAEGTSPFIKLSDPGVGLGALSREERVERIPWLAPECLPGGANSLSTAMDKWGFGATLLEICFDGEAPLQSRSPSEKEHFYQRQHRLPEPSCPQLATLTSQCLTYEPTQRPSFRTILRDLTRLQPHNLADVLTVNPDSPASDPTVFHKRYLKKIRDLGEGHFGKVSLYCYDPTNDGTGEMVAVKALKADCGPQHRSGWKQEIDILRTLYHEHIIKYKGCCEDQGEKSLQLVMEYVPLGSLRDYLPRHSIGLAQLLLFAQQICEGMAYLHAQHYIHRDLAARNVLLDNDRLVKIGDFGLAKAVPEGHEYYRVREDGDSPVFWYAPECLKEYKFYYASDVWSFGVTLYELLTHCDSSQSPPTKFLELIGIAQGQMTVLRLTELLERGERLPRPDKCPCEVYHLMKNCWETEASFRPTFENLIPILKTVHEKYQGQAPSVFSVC
row,pKi,SMILES
1,> 8.00,C[C@@H]1COCCN1c1ccc(Nc2cc(-c3c(F)cccc3F)nc3c2C(=O)NC3)nc1
2,> 8.00,CC1(C)CCN(c2ccc(Nc3cc(-c4c(F)cccc4F)nc4c3C(=O)NC4)nc2)CC1
3,> 8.00,CCNC(=O)c1ccc(Nc2cc(-c3c(F)cccc3F)nc3c2C(=O)NC3)cn1
4,> 8.00,CC1(C)CCCC(=O)N1c1ccc(Nc2cc(-c3c(F)cccc3F)nc3c2C(=O)NC3)nc1
5,> 8.00,O=C1NCc2nc(-c3c(F)cccc3F)cc(Nc3ccc(C4=CCOCC4)cn3)c21
6,> 8.00,O=C1NCc2nc(-c3c(F)cccc3F)cc(Nc3ccc(C4(O)CCOCC4)cn3)c21
7,> 8.00,CC1COCCN1c1ccc(Nc2cc(-c3c(F)cccc3F)nc3c2C(=O)NC3)nc1 (stereo not drawn)
8,> 8.00,CC1(C)OCCN(c2ccc(Nc3cc(-c4c(F)cccc4F)nc4c3C(=O)NC4)nc2)C1=O
9,> 8.00,O=C1NCc2nc(-c3c(F)cccc3F)cc(Nc3ccc(NS(=O)(=O)C(F)F)cn3)c21
10,> 8.00,CC1(C)CCC(=O)N1c1ccc(Nc2cc(-c3c(F)cccc3F)nc3c2C(=O)NC3)nc1
11,> 8.00,O=C1NCc2nc(-c3c(F)cccc3F)cc(Nc3ccc(N4CCCC4)cn3)c21
12,> 8.00,CCNC(=O)c1ccc(Nc2cc(-c3c(F)cccc3Cl)nc3c2C(=O)NC3)nc1
13,> 8.00,O=C1NCc2nc(-c3c(F)cccc3F)cc(Nc3ccc(N4CCCC(O)C4)cn3)c21 (stereo not drawn)
14,> 8.00,CCNC(=O)c1cnc(Nc2cc(-c3c(F)cccc3F)nc3c2C(=O)NC3)cc1F
15,> 8.00,O=C1NCc2nc(-c3c(F)cccc3F)cc(Nc3ccc(N4CCC5(CC5)C4)cn3)c21
16,> 8.00,O=C1NCc2nc(-c3c(F)cccc3F)cc(Nc3ccc(N4CCOCC4=O)cn3)c21
17,> 8.00,CC1(C)CN(c2ccc(Nc3cc(-c4c(F)cccc4F)nc4c3C(=O)NC4)nc2)CC[C@@H]1O
18,> 8.00,CN(c1ccc(Nc2cc(-c3c(F)cccc3F)nc3c2C(=O)NC3)nc1)C(C)(C)C
19,> 8.00,CCNC(=O)c1ccc(Nc2cc(-c3c(F)cccc3C#N)nc3c2C(=O)NC3)nc1
20,> 8.00,O=C1NCc2nc(-c3c(F)cccc3F)cc(Nc3ccc(F)cn3)c21
21,> 8.00,CC(C)(C)Nc1ccc(Nc2cc(-c3c(F)cccc3F)nc3c2C(=O)NC3)nc1
22,> 8.00,O=C1NCc2nc(-c3c(F)cccc3F)cc(Nc3ccc(F)cc3)c21

# Continued, compound first:
row,SMILES,pKi
1,CC1CC(O)CC(C)N1c1ccc(Nc2cc(-c3c(F)cccc3F)nc3c2C(=O)NC3)nc1 (stereo not drawn),> 8.00
2,CCNC(=O)Cc1ncc(Nc2nc(-c3c(F)cccc3F)nc3c2C(=O)NC3)cn1,< 6.00
3,CC1(O)CCN(C(=O)c2ccc(Nc3cc(-c4c(F)cccc4F)nc4c3C(=O)NC4)cc2)CC1,> 8.00
4,CCNC(=O)c1ccc(Nc2nc(-c3c(F)cccc3F)nc3c2C(=O)NC3)cc1,> 8.00
5,CC(C)Oc1ccc(Nc2nc(-c3c(F)cccc3F)nc3c2C(=O)NC3)cc1,> 8.00
6,CC[C@@]1(c2ccc(Nc3nc(-c4c(F)cccc4F)nc4c3C(=O)NC4)cc2)CCNC1=O,> 8.00
7,O=C1NCc2nc(-c3c(F)cccc3F)cc(Nc3ccc(N4CCC[C@H](O)C4)cn3)c21,> 8.00
8,COc1ccc(Nc2cc(-c3c(F)cccc3F)nc3c2C(=O)N[C@@H]3C)nc1,> 8.00
9,O=C1NCc2nc(-c3c(F)cccc3F)cc(Nc3ccc(N4C5COCC4C5)cn3)c21,> 8.00
10,O=C1NCc2nc(-c3c(F)cccc3F)cc(Nc3ccc(N4CCN(CCC(F)(F)F)CC4)cn3)c21,> 8.00
11,O=C1NCc2nc(-c3c(F)cccc3F)c(F)c(Nc3ccc(N4CCOCC4)cn3)c21,> 8.00
12,CC1(c2ccc(Nc3nc(-c4c(F)cccc4F)nc4c3C(=O)NC4)cc2)COC1,> 8.00
13,CC[C@]1(c2ccc(Nc3nc(-c4c(F)cccc4F)nc4c3C(=O)NC4)cc2)CCNC1=O,> 8.00
14,CC(C)N1CCN(C(=O)c2ccc(Nc3cc(-c4c(F)cccc4F)nc4c3C(=O)NC4)cc2)CC1,> 8.00
15,C[C@@H]1CCC[C@@H](C)N1c1ccc(Nc2cc(-c3c(F)cccc3F)nc3c2C(=O)NC3)nc1,> 8.00
16,O=C1NCc2nc(-c3c(F)cccc3F)cc(Nc3ccc(N4CCOCC4)nc3)c21,> 8.00
17,CC(C)N1CCN(c2ccc(Nc3cc(-c4c(F)cccc4F)nc4c3C(=O)NC4)nc2)C(=O)C1,> 8.00
18,O=C1NCc2nc(-c3c(F)cccc3F)cc(Nc3ccc(N4CCN(CC(F)F)CC4)cn3)c21,> 8.00

row,SMILES,pKi
1,COCCNC(=O)c1ccc(Nc2cc(-c3c(F)cccc3F)nc3c2C(=O)NC3)nc1,> 8.00
2,N#Cc1cccc(F)c1-c1cc(Nc2ccc(C(=O)N3CCOCC3)cc2)c2c(n1)CNC2=O,> 8.00
3,COc1ccc(Nc2cc(-c3c(F)cccc3C#N)nc3c2C(=O)NC3)nc1,> 8.00
4,C[C@@H]1COC[C@@H](C)N1C(=O)c1ccc(Nc2cc(-c3c(F)cccc3F)nc3c2C(=O)NC3)cc1,> 8.00
5,CN1CCN(C)[C@](C)(c2ccc(Nc3nc(-c4c(F)cccc4F)nc4c3C(=O)NC4)cc2)C1=O,> 8.00
6,O=C1NCc2nc(-c3c(F)cccc3F)cc(Nc3ccc(C(=O)N4CCCCC4)cc3)c21,> 8.00
7,O=C1NCc2nc(-c3c(F)cccc3F)cc(Nc3ccc(N4CCCOCC4)cn3)c21,> 8.00
8,C[C@@H]1CCC[C@H](C)N1c1ccc(Nc2cc(-c3c(F)cccc3F)nc3c2C(=O)NC3)nc1,> 8.00
9,CCN(CC)C(=O)c1ccc(Nc2cc(-c3c(F)cccc3F)nc3c2C(=O)NC3)cc1,> 8.00
10,C[C@H]1COC[C@H](C)N1c1ccc(Nc2cc(-c3c(F)cccc3F)nc3c2C(=O)NC3)nc1,> 8.00
11,O=C1NCc2nc(-c3c(F)cccc3F)cc(Nc3ccc(C(=O)N4CCC(F)(F)CC4)cc3)c21,> 8.00
12,O=C1NCc2nc(-c3c(F)cccc3F)cc(Nc3ccc(C(=O)N4CCOCC4)cn3)c21,> 8.00
13,CC1(O)CN(c2ccc(Nc3cc(-c4c(F)cccc4F)nc4c3C(=O)NC4)nc2)C1,> 8.00
14,COC(=O)C(C)c1ccc(Nc2nc(-c3c(F)cccc3F)nc3c2C(=O)NC3)cc1 (stereo not drawn),> 8.00
15,O=C(Cc1ccc(Nc2nc(-c3c(F)cccc3F)nc3c2C(=O)NC3)cc1)NC1CNC1,> 8.00
16,CC(C)N1CCN(c2ccc(Nc3cc(-c4c(F)cccc4F)nc4c3C(=O)NC4)nc2)CC1,> 8.00
17,O=C1NCc2nc(-c3c(F)cccc3F)cc(Nc3ccc(N4CC(F)(F)C4)cn3)c21,> 8.00
18,Cc1ccc(Nc2nc(-c3c(F)cccc3F)nc3c2C(=O)NC3)cc1,> 8.00

# — ChEMBL document CHEMBL5726312, “TYK2 inhibitors and uses thereof” (2019)
